Laboratory results taken from patent US8207218B2, “DMAE as sole agent for the treatment of mild cognitive impairment” (Pierre Fabre Medicament, priority 2006, dated 2012).

Legend:
[1] = tested on: healthy individuals with memory loss induced by injection of scopolamine; experiment: Buschke Selective Reminding Test, memory loss induced by injection of scopolamine (cross-over study); format: in vivo; conditions: 24 healthy individuals, repeated oral doses
Description: (§1) Under the present invention, the activity of DMAE and its salts and esters, and the hydrates and solvates, was assessed in a population in whom this memory disorder was induced by injection of scopolamine, to reproduce the profile of the target population.
(§2) The medications given were in forms suitable to be taken via oral route, corresponding to dosage units allowing daily doses in the order of 100 mg to 3 g, advantageously 300 mg to 3 g of active ingredient in adults, particularly in the order of 1500 mg per day. The tested medications led to plasma levels corresponding to a Cmax peak of around 1.5 μg/ml of DMAE and/or around 24 ng/ml of pGlu (pyroglutamic acid).
(§3) The Applicant conducted the following tests: • Memory test: Buschke Selective Reminding Test, • Attention test: Digit Symbol Substitution Test (90″) • Assessment of alertness and mood: EVA by Bond and Lader, • Sensory-motor performance tests: reaction times (total, decisional and motor)
The main results observed are given in the graphs of the appended FIGS. 1 to 4 in which: • LTS designates the number of words acquired in long-term storage, • LTR designates the number of words retrieved from long-term memory in each test i.e. the words belonging to LTS and which are recalled for the test in progress, and • CLTR designates the number of words which are consistently acquired i.e. which are recalled during subsequent tests.

[2] = tested on: healthy individuals with memory loss induced by injection of scopolamine; experiment: Attention (Digit Symbol Substitution Test), alertness and mood (EVA by Bond and Lader), reaction times, after scopolamine; format: in vivo; conditions: 24 healthy individuals, repeated oral doses
Description: as §1, §2, §3

**Q.** For `CN(C)CCO.O=C1CC[C@@H](C(=O)O)N1` [DMAE pyroglutamate], which “effect on memory performance levels” value [1] is on record?
**A.** The value was “specific effect on memory performance levels”.

**Q.** And the “impact on the other cognitive components tested such as alertness, attention” value [2]?
**A.** The value was “without any impact”.

**Q.** What does the source list for `CN(C)CCO` [DMAE, dimethylaminoethanol]?
**A.** effect on memory performance levels [1]: specific effect on memory performance levels; impact on the other cognitive components tested such as alertness, attention [2]: without any impact
